In US20110280930A1, “PRODUCTS AND METHODS FOR STIMULATING AN IMMUNE RESPONSE” (priority 2008, published 2011):

Tested on: DN32.D3 cells
Experiment: αGalCer presentation by B cells to iNKT cells (IL-2 production)
Format: cell-based, mouse
Conditions: MD4 B cells pulsed with particles or soluble αGalCer, then cocultured with DN32.D3 cells; IL-2 by ELISA
Method: Splenic B cells were enriched by negative selection to >99% purity using B cell purification kit (Miltenyi Biotec). For analysis of αGalCer presentation, B cells were incubated overnight with particles containing αGalCer and/or HEL, extensively washed and cultured at 5×10^4 cells per well with the same number of DN32.D3 cells. NKT activation was assayed by measuring IL-2 production in the culture supernatant. For blocking experiments MD4 B cells were incubated with an antiCDld blocking antibody (25 μg/ml; clone 1B1) for 2 h before incubation with iNKT cells.
Concentration of IL-2 in the supernatant of the cultures was determined by ELISA using the JES6-1A12 capture antibody (BD Pharmingen). Biotinylated JSE6-5H4 (BD Pharmingen) was used for detection. Specific antibody in mice sera were measured using plates coated with antigen (HEL, OVA or CGG) and serial dilutions of sera. Bound antibodies were detected with biotin-labelled goat anti-mouse IgM, IgG, IgG1, IgG2b, IgG2c or IgG3 (BD Pharmingen).
We aspired to investigate the impact of targeting iNKT cell help to antigen specific B cells during the development of an immune response. […] Alexa-488-labeled-αGalCer was used to quantify the amount of αGalCer loaded on the beads, and we found this to be 150 ng per μl of beads (10^8 beads/μl). […]

## CCCCCCCCCCCCCCCCCCCCCCCCCC(=O)N[C@@H](CO[C@H]1O[C@H](CO)[C@H](O)[C@H](O)[C@H]1O)[C@H](O)[C@H](O)CCCCCCCCCCCCCC [soluble αGalCer, α-galactosylceramide]
  iNKT cell activation (IL-2 production): efficiently presented by B cells and induced IL-2 production
